Reference: patent US7700644B2, “Isoflavonoid dimers” (Novogen Research Pty Ltd, priority 2005, dated 2010)

Assays:
[1] = tested on: Neonatal foreskin fibroblasts (NFF); test: Normal cell toxicity, MTT proliferation assay, NFF; format: cell-based, human; settings: NFF fibroblast, cultured 5 days, MTT
Procedure: Neonatal foreskin fibroblasts (NFF) were a gift from Dr. Peter Parsons (Queensland Institute of Medical Research). RK-13 (rabbit kidney) cells were obtained from Miller Whalley (Macquarie University). Both cell types were cultured in RPMI supplemented with 10% FCS (CSL, Australia), penicillin (100 U/ml), streptomycin ([…]), L-glutamine (2 mM) and sodium bicarbonate (1.2 g/L), and cultured at 37° C. in a humidified atmosphere of 5% CO2.
(§1) IC50 values were determined for each cell line. Cells were seeded in 96-well plates at an appropriate cell density as determined from growth kinetics analysis. NFFs were cultured for 5 days and RK-13s for 24 hrs in the absence and presence of the test compounds. Cell proliferation was assessed after the addition of 20 μl of 3-4,5 dimethylthiazol-2,5-diphenyl tetrazolium bromide (MTT, 2.5 mg/ml in PBS, Sigma) for 3-4 hrs at 37° C. according to manufacturer's instructions. IC50 values were calculated from semi-log plots of % of control proliferation on the y-axis against log dose on the x-axis.
Duplicate cytotoxicity assays against NFF cells were conducted with dehydroequol (DHE), 4,9-dihydroxy-14,15-dimethoxy-12a-(3′,4′-dimethoxyphenyl)-3,10-dimethyl-2,11-dioxa-(1H,12H)-6b,6c,12a,16b-tetrahydronaphtho[1,2-g]chrysene (2) from Example 6.1 and cisplatin.

[2] = tested on: A2780 (Ovarian); test: In vitro cytotoxicity, MTT proliferation assay, A2780; format: cell-based, human
Procedure: (§2) The human pancreatic cancer cell line, HPAC (CRL-2119) was routinely cultured in 1:1 mixture DMEM (Sigma) plus Ham's F12 (Sigma) medium containing HEPES (15 mM), insulin (0.002 mg/ml), transferrin (0.005 mg/ml), hydrocortisone, (40 ng/ml), epidermal growth factor (10 ng/ml). The ovarian cancer cell line CP70 was obtained as a gift from Dr. Gil Mor (Yale University) and cultured in a 1:1 mixture DMEM plus Ham's F12 medium, and SKOV-3 was purchased from ATCC and cultured in McCoy's 5a medium. The breast cancer cell line MDA-MB-468 cultured in Leibovitz's L-15 medium.
(§3) All cultures were supplemented with 10% FCS(CSL, Australia), penicillin (100 U/ml), streptomycin ([…]), L-glutamine (2 mM) and sodium bicarbonate (1.2 g/L), and cultured at 37° C. in a humidified atmosphere of 5% CO2. All remaining cell lines were purchased from ATCC (Maryland, USA) except where noted.
as §1

[3] = tested on: ovarian cancer cell line CP70; test: In vitro cytotoxicity, MTT proliferation assay, CP70; format: cell-based, human
Procedure: as §2, §3, §1

[4] = tested on: SKOV-3 (Ovarian); test: In vitro cytotoxicity, MTT proliferation assay, SKOV-3; format: cell-based, human; settings: Ovarian SKOV-3
Procedure: as §2, §3, §1

[5] = tested on: PC3 (Prostate); test: In vitro cytotoxicity, MTT proliferation assay, PC3; format: cell-based, human
Procedure: as §2, §3, §1

[6] = tested on: LNCaP (Prostate); test: In vitro cytotoxicity, MTT proliferation assay, LNCaP; format: cell-based, human
Procedure: as §2, §3, §1

[7] = tested on: DU145 (Prostate); test: In vitro cytotoxicity, MTT proliferation assay, DU145; format: cell-based, human
Procedure: as §2, §3, §1

[8] = tested on: MCF-7 (Breast); test: In vitro cytotoxicity, MTT proliferation assay, MCF-7; format: cell-based, human; settings: Breast MCF-7
Procedure: as §2, §3, §1

[9] = tested on: breast cancer cell line MDA-MB-468; test: In vitro cytotoxicity, MTT proliferation assay, MDA-MB-468; format: cell-based, human; settings: Breast MDA-MB-468
Procedure: as §2, §3, §1

[10] = tested on: HTB-138 (Glioma); test: In vitro cytotoxicity, MTT proliferation assay, HTB-138; format: cell-based, human; settings: Glioma HTB-138
Procedure: as §2, §3, §1

[11] = tested on: human pancreatic cancer cell line, HPAC (CRL-2119); test: In vitro cytotoxicity, MTT proliferation assay, CRL-2119; format: cell-based; settings: Pancreatic CRL-2119
Procedure: as §2, §3, §1

[12] = tested on: NCI-H460 (Lung); test: In vitro cytotoxicity, MTT proliferation assay, NCI-H460; format: cell-based, human
Procedure: as §2, §3, §1

[13] = tested on: HT-29 (Colorectal); test: In vitro cytotoxicity, MTT proliferation assay, HT-29; format: cell-based, human; settings: Colorectal HT-29
Procedure: as §2, §3, §1

[14] = tested on: HCT-15 (Colorectal); test: In vitro cytotoxicity, MTT proliferation assay, HCT-15; format: cell-based, human; settings: Colorectal HCT-15
Procedure: as §2, §3, §1

[15] = tested on: MM200 (Melanoma); test: In vitro cytotoxicity, MTT proliferation assay, MM200; format: cell-based, human
Procedure: as §2, §3, §1

[16] = tested on: MM96L (Melanoma); test: In vitro cytotoxicity, MTT proliferation assay, MM96L; format: cell-based, human
Procedure: as §2, §3, §1

Which results are given for `N.N.[Cl][Pt][Cl]` [Cisplatin, cis-diamminedichloroplatinum]?
IC50 [1]: 9.85 ± 5 µM; IC50 [2]: 2.1 µM; IC50 [3]: 10.3 µM; IC50 [4]: 5.4 µM; IC50 [5]: 2.11 µM; IC50 [6]: > 10 µM; IC50 [7]: 2.07 µM; IC50 [8]: 3.69 µM; IC50 [9]: 0.58 µM; IC50 [10]: 42.3 µM; IC50 [11]: 9.36 µM; IC50 [12]: 22.3 µM; IC50 [13]: 22.7 ± 35 µM; IC50 [14]: 130 ± 39 µM; IC50 [15]: 8.82 µM; IC50 [16]: 4.6 µM
